# Test results: patent publication US8969565B2, “Imidazo[1,2-b]pyridazine-based compounds, compositions comprising them, and methods of their use” (Lexicon Pharmaceuticals, Inc., priority 2012, dated 2015)
# pIC50: −log10 of the molar value.
# Target: T1, AAK1 (Homo sapiens, UniProt Q2M2I8)
# T1 construct: HA; expressed in transfected cells; host or cells: HEK293F
# Assay: HEK281 cell-based assay (phospho-mu2 Western blot in transfected HEK293F cells)
# Settings: 3 hours incubation, read-out: CBA IC50
# Method in brief: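 HEK293F cells co-transfected with full-length human AAK1/HA and Flag/AP2M1 were treated next day with 5 compound concentrations (3-fold dilutions) in DMEM+0.5% FBS for 3 hours at 37° C. Lysates were Western blotted for phospho-mu2, with total mu2 detected by anti-Flag.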
# T1 sequence (Q2M2I8 1-863 isoform Q2M2I8-2): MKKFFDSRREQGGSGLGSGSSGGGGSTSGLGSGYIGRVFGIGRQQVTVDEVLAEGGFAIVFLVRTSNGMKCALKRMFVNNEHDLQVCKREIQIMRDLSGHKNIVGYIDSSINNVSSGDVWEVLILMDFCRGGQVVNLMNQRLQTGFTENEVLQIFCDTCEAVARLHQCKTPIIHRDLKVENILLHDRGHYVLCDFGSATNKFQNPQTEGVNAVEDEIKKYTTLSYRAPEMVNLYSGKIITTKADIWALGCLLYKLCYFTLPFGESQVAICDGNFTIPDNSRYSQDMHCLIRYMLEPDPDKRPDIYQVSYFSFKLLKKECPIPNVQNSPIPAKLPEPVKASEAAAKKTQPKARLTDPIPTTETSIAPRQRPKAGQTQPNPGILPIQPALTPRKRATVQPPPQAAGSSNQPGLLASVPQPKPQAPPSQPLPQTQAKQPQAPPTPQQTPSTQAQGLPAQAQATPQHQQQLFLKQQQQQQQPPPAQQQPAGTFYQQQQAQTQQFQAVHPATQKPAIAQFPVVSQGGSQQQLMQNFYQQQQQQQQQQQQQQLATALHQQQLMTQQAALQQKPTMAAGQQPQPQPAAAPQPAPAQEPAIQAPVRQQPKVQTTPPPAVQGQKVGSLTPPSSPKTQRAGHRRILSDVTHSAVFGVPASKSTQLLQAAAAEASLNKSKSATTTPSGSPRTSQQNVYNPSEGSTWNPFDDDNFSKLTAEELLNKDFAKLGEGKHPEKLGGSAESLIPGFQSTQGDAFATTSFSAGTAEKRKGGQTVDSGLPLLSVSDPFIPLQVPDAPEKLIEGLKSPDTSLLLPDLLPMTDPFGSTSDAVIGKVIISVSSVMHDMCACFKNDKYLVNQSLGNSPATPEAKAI
row,pIC50,Structure (SMILES)
1,≥ 8.00,"CC(C)OC(=O)N(C)CCNc1ccc2ncc(-c3ccc(C4CCCN4)cc3)n2n1 (stereo not shown) [isopropyl methyl(2-((3-(4-(pyrrolidin-2-yl)phenyl)imidazo[1,2-b]pyridazin-6-yl)amino)ethyl)carbamate]"
2,≥ 8.00,"CC(C)(C)OC(=O)N1CCCC1CCNc1ccc2ncc(-c3ccc(CN)cc3)n2n1 (stereo not shown) [tert-butyl 2-(2-((3-(4-(aminomethyl)phenyl)imidazo[1,2-b]pyridazin-6-yl)amino)ethyl)pyrrolidine-1-carboxylate]"
3,≥ 8.00,"COc1cnccc1-c1cnc2ccc(N3CCN(C(=O)OC(C)(C)C)CC3)nn12 [tert-butyl 4-(3-(3-methoxypyridin-4-yl)imidazo[1,2-b]pyridazin-6-yl)piperazine-1-carboxylate]"
4,≥ 7.00,"COc1ccccc1-c1cnc2ccc(NCCN(C)C(=O)OC(C)(C)C)nn12 [tert-butyl (2-((3-(2-methoxyphenyl)imidazo[1,2-b]pyridazin-6-yl)amino)ethyl)(methyl)carbamate]"
5,≥ 6.00,"COc1cnccc1-c1cnc2ccc(NCCN(C)C(=O)OC(C)(C)C)nn12 [tert-butyl (2-((3-(3-methoxypyridin-4-yl)imidazo[1,2-b]pyridazin-6-yl)amino)ethyl)(methyl)carbamate]"
6,≥ 7.00,"CC(C)(C)OC(=O)NCCNc1ccc2ncc(-c3ccc(CN)cc3)n2n1 [tert-butyl (2-((3-(4-(aminomethyl)phenyl)imidazo[1,2-b]pyridazin-6-yl)amino)ethyl)carbamate]"
7,≥ 7.00,"CN(CCNc1ccc2ncc(-c3ccc(CC#N)cc3)n2n1)C(=O)OC(C)(C)C [tert-butyl (2-((3-(4-(cyanomethyl)phenyl)imidazo[1,2-b]pyridazin-6-yl)amino)ethyl)(methyl)carbamate]"
8,≥ 8.00,"CC(C)N(CCNc1ccc2ncc(-c3ccc(C(N)=O)cc3)n2n1)C(=O)OC(C)(C)C [tert-butyl (2-((3-(4-carbamoylphenyl)imidazo[1,2-b]pyridazin-6-yl)amino)ethyl)(isopropyl)carbamate]"
9,≥ 7.00,"CN(CCCNc1ccc2ncc(-c3ccc(CN)cc3)n2n1)C(=O)OC(C)(C)C [tert-butyl (3-((3-(4-(aminomethyl)phenyl)imidazo[1,2-b]pyridazin-6-yl)amino)propyl)(methyl)carbamate]"
10,≥ 7.00,"CNC(=O)c1ccc(-c2cnc3ccc(NCCN(C)C(=O)OC(C)(C)C)nn23)cc1 [tert-butyl methyl(2-((3-(4-(methylcarbamoyl)phenyl)imidazo[1,2-b]pyridazin-6-yl)amino)ethyl)carbamate]"

# More lines, now with the values behind:
row,Structure (SMILES),pIC50
1,"CC(C)OC(=O)N(C)CCNc1ccc2ncc(-c3cscn3)n2n1 [isopropyl methyl(2-((3-(thiazol-4-yl)imidazo[1,2-b]pyridazin-6-yl)amino)ethyl)carbamate]",≥ 7.00
2,"COC(=O)N(CCNc1ccc2ncc(-c3ccncc3OC)n2n1)C(C)C [methyl isopropyl(2-((3-(3-methoxypyridin-4-yl)imidazo[1,2-b]pyridazin-6-yl)amino)ethyl)carbamate]",≥ 8.00
3,"CCCOC(=O)N(CCNc1ccc2ncc(-c3ccncc3OC)n2n1)C(C)C [propyl isopropyl(2-((3-(3-methoxypyridin-4-yl)imidazo[1,2-b]pyridazin-6-yl)amino)ethyl)carbamate]",≥ 6.00
4,"CC(C)(C)OC(=O)N1CCCC1CCNc1ccc2ncc(-c3ccc(C(N)=O)cc3)n2n1 (stereo not shown) [tert-butyl 2-(2-((3-(4-carbamoylphenyl)imidazo[1,2-b]pyridazin-6-yl)amino)ethyl)pyrrolidine-1-carboxylate]",≥ 7.00
5,"CC(C)(C)OC(=O)N1CCN(c2ccc3ncc(Cl)n3n2)CC1 [tert-butyl 4-(3-chloroimidazo[1,2-b]pyridazin-6-yl)piperazine-1-carboxylate]",≥ 7.00
6,"CN(CCNc1ccc2ncc(-c3ccnc(N)c3)n2n1)C(=O)OC(C)(C)C [tert-butyl (2-((3-(2-aminopyridin-4-yl)imidazo[1,2-b]pyridazin-6-yl)amino)ethyl)(methyl)carbamate]",≥ 8.00
7,"CN(CCNc1ccc2ncc(-c3ccccc3F)n2n1)C(=O)OC(C)(C)C [tert-butyl (2-((3-(2-fluorophenyl)imidazo[1,2-b]pyridazin-6-yl)amino)ethyl)(methyl)carbamate]",≥ 7.00
8,"CN(CCNc1ccc2ncc(-c3ccnc(F)c3)n2n1)C(=O)OC(C)(C)C [tert-butyl (2-((3-(2-fluoropyridin-4-yl)imidazo[1,2-b]pyridazin-6-yl)amino)ethyl)(methyl)carbamate]",≥ 7.00
9,"CN(CCNc1ccc2ncc(-c3cccc(C(N)=O)c3)n2n1)C(=O)OC(C)(C)C [tert-butyl (2-((3-(3-carbamoylphenyl)imidazo[1,2-b]pyridazin-6-yl)amino)ethyl)(methyl)carbamate]",≥ 7.00
10,"COc1cccc(-c2cnc3ccc(NCCN(C)C(=O)OC(C)(C)C)nn23)c1 [tert-butyl (2-((3-(3-methoxyphenyl)imidazo[1,2-b]pyridazin-6-yl)amino)ethyl)(methyl)carbamate]",≥ 7.00
11,"CC(=O)c1ccc(-c2cnc3ccc(NCCN(C)C(=O)OC(C)(C)C)nn23)s1 [tert-butyl (2-((3-(5-acetylthiophen-2-yl)imidazo[1,2-b]pyridazin-6-yl)amino)ethyl)(methyl)carbamate]",≥ 8.00
12,"CC(=O)c1ccc(-c2cnc3ccc(NCCCN(C)C(=O)OC(C)(C)C)nn23)s1 [tert-butyl (3-((3-(5-acetylthiophen-2-yl)imidazo[1,2-b]pyridazin-6-yl)amino)propyl)(methyl)carbamate]",≥ 7.00
13,"COc1cnccc1-c1cnc2ccc(NCCN(C(=O)OC(C)(C)C)C(C)C)nn12 [tert-butyl isopropyl(2-((3-(3-methoxypyridin-4-yl)imidazo[1,2-b]pyridazin-6-yl)amino)ethyl)carbamate]",≥ 7.00
14,"CN(CCNc1ccc2ncc(-c3ccc(C4CCCN4)cc3)n2n1)C(=O)OC(C)(C)C (stereo not shown) [tert-butyl methyl(2-((3-(4-(pyrrolidin-2-yl)phenyl)imidazo[1,2-b]pyridazin-6-yl)amino)ethyl)carbamate]",≥ 8.00
15,"CN(CCNc1ccc2ncc(-c3ccncc3)n2n1)C(=O)OC(C)(C)C [tert-butyl methyl(2-((3-(pyridin-4-yl)imidazo[1,2-b]pyridazin-6-yl)amino)ethyl)carbamate]",≥ 7.00
